In patent US10765651B2, “Co-crystals of substituted glycine and uses thereof” (SyneuRx International (Taiwan) Corp., priority 2017, dated 2020):
Values after ≈ are worked out from the molar mass of the structure shown. Read-outs that look alike come from different tables or passages of the source.

Columns and labels:
[1] = Hygroscopicity test, condition 3 (dynamic vapor sorption, 0 to 90 to 0% RH); type: physicochemical; conditions: DVS, 25° C.
Description: Measurement were taken from 0 to 90 to 0% RH at 25° C. with 10% RH per step with equilibration set to dm/dt+0.01%/min for 10 min or 180 min/step.

[2] = Hygroscopicity test, condition 2 (humidity chamber, weight change); type: physicochemical; conditions: for Weight change (%): dry before (change on drying to 0 hr weight)
[3] = physchem; conditions: water, thermodynamic from solid
[4] = DVS, 0 to 70 to 0% RH, 25° C.
Description: Measurement were taken from 0 to 70 to 0% RH at 25° C. with 10% RH per step with equilibration set to dm/dt+0.01%/min for 10 min or 180 min/step.

[5] = 70-75% RH, room temperature, 3 days

| SMILES | Weight ([2]; 30° C., 75% RH, 0 hr) [g] | Weight ([2]; 30° C., 75% RH, 1 hr) [g] | Weight change (%), water absorbed ([2]; 30° C., 75% RH, 1 hr) | Weight ([2]; 30° C., 75% RH, 2 hr) [g] | Weight change (%), water absorbed ([2]; 30° C., 75% RH, 2 hr) | Weight ([2]; 30° C., 75% RH, 3 hr) [g] | Weight change (%), water absorbed ([2]; 30° C., 75% RH, 3 hr) | Weight ([2]; 30° C., 75% RH, 5 hr) [g] | Weight change (%), water absorbed ([2]; 30° C., 75% RH, 5 hr) | Weight ([2]; 30° C., 75% RH, 24 hr) [g] | Weight change (%), water absorbed ([2]; 30° C., 75% RH, 24 hr) | Weight ([2]; 30° C., 75% RH, 48 hr) [g] | Weight change (%), water absorbed ([2]; 30° C., 75% RH, 48 hr) | Weight ([2]; 30° C., 75% RH, 72 hr) [g] | Weight change (%), water absorbed ([2]; 30° C., 75% RH, 72 hr) | Outward (appearance) ([2]; dry before) | Weight ([2]; dry before) [g] | Weight change (%) [2] | other results |
| --- | --- | --- | --- | --- | --- | --- | --- | --- | --- | --- | --- | --- | --- | --- | --- | --- | --- | --- | --- |
| CNCC(=O)O [N-MG, N-methylglycine, reference compound] | 0.1375 | 0.1585 | (+15.3%) | 0.1942 | (+41.2%) | 0.2146 | (+56.1%) | 0.2403 | (+74.8%) | 0.2884 | (+109.7%) | 0.2885 | (+109.8%) | 0.2885 | (+109.8%) | White | 0.1375 | (−0%) | Change In Mass (%) ([1]; RH 0%): 0.0%; Change In Mass (%) ([1]; RH 10%): 0.0%; Change In Mass (%) ([1]; RH 20%): 0.0%; Change In Mass (%) ([1]; RH 30%): 0.0%; Change In Mass (%) ([1]; RH 40%): 0.0%; Change In Mass (%) ([1]; RH 50%): 0.0%; Change In Mass (%) ([1]; RH 60%): 0.0%; Change In Mass (%) ([1]; RH 70%): 38.6%; Change In Mass (%) ([1]; RH 80%): 87.4%; Change In Mass (%) ([1]; RH 90%): 130.9%; Outward (appearance) ([2]; 30° C., 75% RH, 1 hr): 90%; Outward (appearance) ([2]; 30° C., 75% RH, 3 hr): Liquid; solubility [3]: 660 mg/mL (≈ 7410 mM) |
| CNCC(=O)O.O=C(O)C(O)C(O)C(=O)O [N-MG/L-TA = 1/1, N-methylglycine:L-tartaric acid (1:1) co-crystal] | 0.1432 | 0.1437 | (+0.3%) | 0.1437 | (+0.3%) | 0.1439 | (+0.4%) | 0.1439 | (+0.4%) | 0.1440 | (+0.5%) | 0.1440 | (+0.5%) | 0.1441 | (+0.6%) | White | 0.1434 | (−0.1%) | Hygroscopicity comparison [4]: less hygroscopic than N-methylgycine or L-tartaric acid individually; Weight change (%), water absorbed ([2]; 30° C., 75% RH, 5 hr, listed as N-methylglycine:L-tartaric acid co-crystal): 0.4%; Outward (appearance) ([2]; 30° C., 75% RH, 72 hr): remained as white powder; Weight change (%), water absorbed ([2]; 30° C., 75% RH, 72 hr, listed as 1:1 N-methylglycine:L-tartaric acid co-crystal): 0.6%; Hygroscopicity comparison ([2]; 30° C., 75% RH, listed as 1:1 N-methylglycine:L-tartaric acid co-crystal): much less hygroscopic than 2:1 N-methylglycine:L-tartaric acid co-crystal; Appearance after exposure to high humidity [5]: remained as fine white powder; Hygroscopicity comparison [5]: much less hygroscopic than the 2:1 co-crystal |
